Reference: patent US20260297070A1, “CYCLIC [COMPOUND LEFT OUT] WRN INHIBITORS” (Nimbus Wadjet, Inc., priority 2023, published 2026)

Target: T1, human Werner helicase (WRN-BV08, Uniprot Q14191, amino acids 517-1235 with L1074F point mutation) (Homo sapiens, UniProt Q14191, L1074F)
T1 construct: Uniprot Q14191, amino acids 517-1235 with L1074F point mutation; TEV-cleavable 8×His (C, cleaved yes); made in house; host or cells: Sf9 insect cells (baculovirus)
Experiment: WRN (BV08) ADP-Glo Assay
Format: biochemical
Conditions: 0.15 nM WRN, 5 μM ATP, 0.1 nM DNA duplex, 15 min preincubation, 60 min at 25° C., pH 7.5, 1% DMSO; read-out: ADP-Glo_hWRN_IC50
Summary of the method: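 WRN 0.15 nM + cpd, 15 min 25 °C; add 5 μM ATP / 0.1 nM annealed DNA duplex; 60 min 25 °C; ADP-Glo stop, RLU. Buffer 20 mM Bicine pH 7.5, 1 mM MgCl2, 10 mM KCl, 1 mM TCEP. IC50, 4-parameter fit.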

T1 sequence (Q14191 with tags, fused parts or gaps L1074F limits assumed): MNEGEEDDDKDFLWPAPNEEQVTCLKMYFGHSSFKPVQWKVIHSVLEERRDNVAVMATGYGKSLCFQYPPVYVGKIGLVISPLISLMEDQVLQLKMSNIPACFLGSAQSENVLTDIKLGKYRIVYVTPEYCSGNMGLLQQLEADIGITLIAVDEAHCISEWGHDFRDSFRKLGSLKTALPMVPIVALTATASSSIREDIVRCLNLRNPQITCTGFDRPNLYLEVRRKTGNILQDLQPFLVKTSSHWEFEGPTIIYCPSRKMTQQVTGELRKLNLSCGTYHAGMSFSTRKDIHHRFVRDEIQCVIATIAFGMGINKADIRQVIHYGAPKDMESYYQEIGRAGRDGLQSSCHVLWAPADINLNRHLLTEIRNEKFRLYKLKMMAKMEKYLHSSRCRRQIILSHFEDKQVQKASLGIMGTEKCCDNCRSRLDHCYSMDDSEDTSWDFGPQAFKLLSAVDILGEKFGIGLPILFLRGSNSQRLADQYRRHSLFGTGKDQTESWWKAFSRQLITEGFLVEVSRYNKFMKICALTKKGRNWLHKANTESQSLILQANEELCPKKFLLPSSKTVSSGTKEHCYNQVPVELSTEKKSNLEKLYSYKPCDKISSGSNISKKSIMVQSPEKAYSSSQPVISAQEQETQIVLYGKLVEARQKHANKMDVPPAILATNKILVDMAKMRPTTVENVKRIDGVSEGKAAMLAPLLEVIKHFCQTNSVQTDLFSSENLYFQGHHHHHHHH

| Compound | IC50 |
| --- | --- |
| COc1ccc(C(F)(F)C(=O)N(Cc2ccncc2)C2C=CS(=O)(=O)C2)cc1 (stereo not shown) [I-649, N-(1,1-dioxo-2,3-dihydro-1lambda6-thiophen-3-yl)-2,2-difluoro-2-(4-methoxyphenyl)-N-[(pyridin-4-yl)methyl]acetamide] | > 50 µM |
| COCCOC(C(=O)N(Cc1ccnc(C(C)(C)O)c1)[C@@H]1C=CS(=O)(=O)C1)c1ccc(S(F)(F)(F)(F)F)cc1 (single isomer, unassigned) [I-765] | 0.5 to 5 µM |
| O=C(Cc1ccc(S(F)(F)(F)(F)F)cc1)N(Cc1ccnc(OC(F)(F)F)c1)C1C=CS(=O)(=O)C1 (stereo not shown) [I-725, N-(1,1-dioxo-2,3-dihydro-1lambda6-thiophen-3-yl)-2-[4-(pentafluoro-lambda6-sulfanyl)phenyl]-N-{[2-(trifluoromethoxy)pyridin-4-yl]methyl}acetamide] | 0.5 to 5 µM |
| O=C(Cc1ccc(C2CCCC2)cc1)N(Cc1ccncc1)C1C=CS(=O)(=O)C1 (stereo not shown) [I-217, 2-(4-cyclopentylphenyl)-N-(1,1-dioxo-2,3-dihydro-1lambda6-thiophen-3-yl)-N-[(pyridin-4-yl)methyl]acetamide] | 0.5 to 5 µM |
| Cc1cccn1-c1ccc2c(c1)CC(C(=O)N(Cc1ccnc(C(C)(C)O)c1)[C@@H]1C=CS(=O)(=O)C1)O2 (single isomer, unassigned) [I-607] | < 0.5 µM |
| O=C(Cc1cnc(C(F)(F)F)cn1)N(Cc1ccncc1)C1C=CS(=O)(=O)C1 (stereo not shown) [I-627, N-(1,1-dioxo-2,3-dihydro-1lambda6-thiophen-3-yl)-N-[(pyridin-4-yl)methyl]-2-[5-(trifluoromethyl)pyrazin-2-yl]acetamide] | > 50 µM |
| CC(C)(N)c1ccc(CN(C(=O)Cc2ccc(S(F)(F)(F)(F)F)cc2)C2C=CS(=O)(=O)C2)cc1 (stereo not shown) [I-700, N-{[4-(2-aminopropan-2-yl)phenyl]methyl}-N-(1,1-dioxo-2,3-dihydro-1lambda6-thiophen-3-yl)-2-[4-(pentafluoro-lambda6-sulfanyl)phenyl]acetamide] | 5 to 10 µM |
| N#Cc1cccc(CN(C(=O)Cc2ccc(-n3cccc3)cc2)C2C=CS(=O)(=O)C2)c1 (stereo not shown) [I-286, N-[(3-cyanophenyl)methyl]-N-(1,1-dioxo-2,3-dihydro-1lambda6-thiophen-3-yl)-2-[4-(1H-pyrrol-1-yl)phenyl]acetamide] | 10 to 50 µM |
| O=C(Nc1ccc(CC(=O)N(Cc2ccncc2)C2C=CS(=O)(=O)C2)cc1)C1CC1 (stereo not shown) [I-448, N-(4-{[(1,1-dioxo-2,3-dihydro-1lambda6-thiophen-3-yl)[(pyridin-4-yl)methyl]carbamoyl]methyl}phenyl)cyclopropanecarboxamide] | > 50 µM |
| O=C(Cc1cnn(-c2ccccc2)c1)N(Cc1ccncc1)C1C=CS(=O)(=O)C1 (stereo not shown) [I-409, N-(1,1-dioxo-2,3-dihydro-1lambda6-thiophen-3-yl)-2-(1-phenyl-1H-pyrazol-4-yl)-N-[(pyridin-4-yl)methyl]acetamide] | > 50 µM |
| Cc1cnn(CC(=O)N(Cc2ccncc2)C2C=CS(=O)(=O)C2)c1 (stereo not shown) [I-436, N-(1,1-dioxo-2,3-dihydro-1lambda6-thiophen-3-yl)-2-(4-methyl-1H-pyrazol-1-yl)-N-[(pyridin-4-yl)methyl]acetamide] | > 50 µM |
| O=C(Cc1ccc(-n2cccc2)cc1)N(Cc1ccc2ccccc2n1)C1C=CS(=O)(=O)C1 (stereo not shown) [I-210, N-(1,1-dioxo-2,3-dihydro-1lambda6-thiophen-3-yl)-2-[4-(1H-pyrrol-1-yl)phenyl]-N-[(quinolin-2-yl)methyl]acetamide] | 0.5 to 5 µM |
| O=C(C1Cc2cc(-n3cccc3)ccc2O1)N(Cc1ccncc1)C1C=CS(=O)(=O)C1 (stereo not shown) [I-244, N-(1,1-dioxo-2,3-dihydro-1lambda6-thiophen-3-yl)-N-[(pyridin-4-yl)methyl]-5-(1H-pyrrol-1-yl)-2,3-dihydro-1-benzofuran-2-carboxamide] | 5 to 10 µM |
| CN(C)C(=O)C(C(=O)N(Cc1ccnc(C(C)(C)O)c1)C1C=CS(=O)(=O)C1)c1ccc(-c2ccc(F)cc2)cc1 (single isomer, unassigned) [I-309, (2R**)-N-[(3R*)-1,1-dioxo-2,3-dihydro-1lambda6-thiophen-3-yl]-2-{4′-fluoro-[1,1′-biphenyl]-4-yl}-N-{[2-(2-hydroxypropan-2-yl)pyridin-4-yl]methyl}-N′,N′-dimethylpropanediamide] | 10 to 50 µM |
| O=C(Cc1ccc(S(F)(F)(F)(F)F)cc1)N(CCc1nccs1)C1C=CS(=O)(=O)C1 (stereo not shown) [I-679, N-(1,1-dioxo-2,3-dihydro-1lambda6-thiophen-3-yl)-2-[4-(pentafluoro-lambda6-sulfanyl)phenyl]-N-[2-(1,3-thiazol-2-yl)ethyl]acetamide] | 0.5 to 5 µM |
| CN(C)C(=O)C(C(=O)N(Cc1ccncc1)C1C=CS(=O)(=O)C1)c1ccc(-c2ccc(F)cc2)cc1 (single isomer, unassigned) [I-362, (2R**)-N′-[(3R*)-1,1-dioxo-2,3-dihydro-1lambda6-thiophen-3-yl]-2-{4′-fluoro-[1,1′-biphenyl]-4-yl}-N,N-dimethyl-N′-[(pyridin-4-yl)methyl]propanediamide] | > 50 µM |
| O=C(Cn1ccc(-c2ccc(F)cc2)cc1=O)N(Cc1ccncc1)C1C=CS(=O)(=O)C1 (stereo not shown) [I-147, N-(1,1-dioxido-2,3-dihydrothiophen-3-yl)-2-(4-(4-fluorophenyl)-2-oxopyridin-1(2H)-yl)-N-(pyridin-4-ylmethyl)acetamide] | 0.5 to 5 µM |
| CNC(=O)c1ccc(CN(C(=O)Cc2ccc(-n3cccc3)cc2)C2C=CS(=O)(=O)C2)cc1 (stereo not shown) [I-255, 4-{[N-(1,1-dioxo-2,3-dihydro-1lambda6-thiophen-3-yl)-2-[4-(1H-pyrrol-1-yl)phenyl]acetamido]methyl}-N-methylbenzamide] | 5 to 10 µM |

Continued, values first:

| IC50 | Compound |
| --- | --- |
| 0.5 to 5 µM | COc1cc(CN(C(=O)C(OCC#N)c2ccc(-c3ccc(F)c(F)c3)cc2F)[C@@H]2C=CS(=O)(=O)C2)ccn1 (single isomer, unassigned) [I-686, (2R*)-2-(cyanomethoxy)-N-[(3R)-1,1-dioxo-2,3-dihydro-1lambda6-thiophen-3-yl]-N-[(2-methoxypyridin-4-yl)methyl]-2-{3,3′,4′-trifluoro-[1,1′-biphenyl]-4-yl}acetamide] |
| > 50 µM | COc1cc(CN(C(=O)C(c2ccc(-c3ccc(F)c(F)c3)cc2F)n2ncnn2)[C@@H]2C=CS(=O)(=O)C2)ccn1 (stereo partly drawn) [I-731, N-[(3R)-1,1-dioxo-2,3-dihydro-1lambda6-thiophen-3-yl]-N-[(2-methoxypyridin-4-yl)methyl]-2-(2H-1,2,3,4-tetrazol-2-yl)-2-{3,3′,4′-trifluoro-[1,1′-biphenyl]-4-yl}acetamide] |
| < 0.5 µM | CC(C)(O)c1cc(CN(C(=O)Cn2ccc(-c3ccc(F)c(F)c3)cc2=O)[C@@H]2C=CS(=O)(=O)C2)ccn1 [I-13, (R)-2-(4-(3,4-difluorophenyl)-2-oxopyridin-1(2H)-yl)-N-(1,1-dioxido-2,3-dihydrothiophen-3-yl)-N-((2-(2-hydroxypropan-2-yl)pyridin-4-yl)methyl)acetamide] |
| 0.5 to 5 µM | CC(C)(O)c1cc(CN(C(=O)Cc2ncc(-c3cc(F)c(F)c(F)c3)s2)C2C=CS(=O)(=O)C2)ccn1 (single isomer, unassigned) [I-794] |
| < 0.5 µM | CC(C)(O)c1cc(CN(C(=O)C(F)c2ccc(-c3ccc(F)c(F)c3)cc2F)C2C=CS(=O)(=O)C2)ccn1 (stereo not shown) [I-77, N-(1,1-dioxo-2,3-dihydro-1lambda6-thiophen-3-yl)-2-fluoro-N-{[2-(2-hydroxypropan-2-yl)pyridin-4-yl]methyl}-2-{3,3′,4′-trifluoro-[1,1′-biphenyl]-4-yl}acetamide] |
| < 0.5 µM | CC(C(=O)N(Cc1ccnc(C(C)(C)O)c1)C1C=CS(=O)(=O)C1)n1cc(-c2cc(F)c(F)c(F)c2)cn1 (single isomer, unassigned) [I-776, (2R*)-N-[(3R**)-1,1-dioxo-2,3-dihydro-1lambda6-thiophen-3-yl]-N-{[2-(2-hydroxypropan-2-yl)pyridin-4-yl]methyl}-2-[4-(3,4,5-trifluorophenyl)-1H-pyrazol-1-yl]propanamide] |
| < 0.5 µM | COc1cc(CN(C(=O)C(c2ccc(-c3ccc(F)c(F)c3)cc2F)n2ccc(C)n2)[C@@H]2C=CS(=O)(=O)C2)ccn1 (single isomer, unassigned) [I-750, (2R*)-N-[(3R)-1,1-dioxo-2,3-dihydro-1lambda6-thiophen-3-yl]-N-[(2-methoxypyridin-4-yl)methyl]-2-(3-methyl-1H-pyrazol-1-yl)-2-{3,3′,4′-trifluoro-[1,1′-biphenyl]-4-yl}acetamide] |
| 5 to 10 µM | COC(C(=O)N(Cc1nc(C(C)(C)O)cs1)C1C=CS(=O)(=O)C1)c1ccc(-c2ccc(F)c(F)c2)cc1F (single isomer, unassigned) [I-747, (2R*)-N-[(3R**)-1,1-dioxo-2,3-dihydro-1lambda6-thiophen-3-yl]-N-{[4-(2-hydroxypropan-2-yl)-1,3-thiazol-2-yl]methyl}-2-methoxy-2-{3,3′,4′-trifluoro-[1,1′-biphenyl]-4-yl}acetamide] |
| < 0.5 µM | COc1cnn(C(C(=O)N(Cc2ccnc(OC)c2)[C@@H]2C=CS(=O)(=O)C2)c2ccc(-c3ccc(F)c(F)c3)cc2F)c1 (stereo partly drawn) [I-748, N-[(3R)-1,1-dioxo-2,3-dihydro-1lambda6-thiophen-3-yl]-2-(4-methoxy-1H-pyrazol-1-yl)-N-[(2-methoxypyridin-4-yl)methyl]-2-{3,3′,4′-trifluoro-[1,1′-biphenyl]-4-yl}acetamide] |
| 10 to 50 µM | COc1cc(CN(C(=O)C(OCC#N)c2ccc(-c3ccc(F)c(F)c3)cc2F)[C@@H]2C=CS(=O)(=O)C2)ccn1 (single isomer, unassigned) [I-692, (2R*)-2-(cyanomethoxy)-N-[(3R)-1,1-dioxo-2,3-dihydro-1lambda6-thiophen-3-yl]-N-[(2-methoxypyridin-4-yl)methyl]-2-{3,3′,4′-trifluoro-[1,1′-biphenyl]-4-y]}acetamide] |
